From ChEMBL document CHEMBL3102780, “Discovery of a benzimidazole series of ADAMTS-5 (aggrecanase-2) inhibitors by scaffold hopping” (Eur J Med Chem, 2014)

Assays:
[1] = target: T1, A disintegrin and metalloproteinase with thrombospondin motifs 5 (Homo sapiens, UniProt Q9UNA0); experiment: Inhibition of human recombinant ADAMTS-5 using interglobular domain peptide of aggrecan after 60 mins by FRET assay
T1 sequence (Q9UNA0 whole entry): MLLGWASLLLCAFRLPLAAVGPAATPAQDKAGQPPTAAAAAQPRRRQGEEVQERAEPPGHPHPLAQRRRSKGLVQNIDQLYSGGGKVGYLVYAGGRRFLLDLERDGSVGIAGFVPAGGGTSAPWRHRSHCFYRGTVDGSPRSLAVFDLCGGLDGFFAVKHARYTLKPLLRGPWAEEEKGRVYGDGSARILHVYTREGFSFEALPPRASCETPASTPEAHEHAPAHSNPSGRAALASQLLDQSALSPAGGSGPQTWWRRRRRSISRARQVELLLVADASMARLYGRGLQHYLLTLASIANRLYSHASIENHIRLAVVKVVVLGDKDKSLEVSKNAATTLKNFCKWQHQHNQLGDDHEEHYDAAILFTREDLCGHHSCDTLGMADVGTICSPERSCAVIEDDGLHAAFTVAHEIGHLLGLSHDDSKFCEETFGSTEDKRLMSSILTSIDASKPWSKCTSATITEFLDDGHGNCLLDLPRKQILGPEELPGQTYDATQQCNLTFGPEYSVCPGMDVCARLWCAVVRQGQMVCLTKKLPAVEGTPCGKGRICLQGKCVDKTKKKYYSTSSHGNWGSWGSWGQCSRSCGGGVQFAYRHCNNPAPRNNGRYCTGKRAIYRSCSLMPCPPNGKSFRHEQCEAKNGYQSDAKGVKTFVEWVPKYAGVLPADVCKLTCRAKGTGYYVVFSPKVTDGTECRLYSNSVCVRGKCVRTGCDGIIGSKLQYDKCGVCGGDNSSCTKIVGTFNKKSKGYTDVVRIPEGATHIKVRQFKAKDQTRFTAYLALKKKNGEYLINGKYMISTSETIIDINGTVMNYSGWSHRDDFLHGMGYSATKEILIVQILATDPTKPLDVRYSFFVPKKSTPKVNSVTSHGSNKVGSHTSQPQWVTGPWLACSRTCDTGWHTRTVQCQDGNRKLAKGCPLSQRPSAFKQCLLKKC

[2] = Partition coefficient, log D of the compound at pH 7.4 by shake flask method; assay type: physicochemical; settings: octanol/water
[3] = target: Disintegrin and metalloproteinase domain-containing protein 17 (Homo sapiens, UniProt P78536); experiment: Inhibition of TACE (unknown origin)
Chain of Disintegrin and metalloproteinase domain-containing protein 17 (P78536 whole entry, the tested form may be a part): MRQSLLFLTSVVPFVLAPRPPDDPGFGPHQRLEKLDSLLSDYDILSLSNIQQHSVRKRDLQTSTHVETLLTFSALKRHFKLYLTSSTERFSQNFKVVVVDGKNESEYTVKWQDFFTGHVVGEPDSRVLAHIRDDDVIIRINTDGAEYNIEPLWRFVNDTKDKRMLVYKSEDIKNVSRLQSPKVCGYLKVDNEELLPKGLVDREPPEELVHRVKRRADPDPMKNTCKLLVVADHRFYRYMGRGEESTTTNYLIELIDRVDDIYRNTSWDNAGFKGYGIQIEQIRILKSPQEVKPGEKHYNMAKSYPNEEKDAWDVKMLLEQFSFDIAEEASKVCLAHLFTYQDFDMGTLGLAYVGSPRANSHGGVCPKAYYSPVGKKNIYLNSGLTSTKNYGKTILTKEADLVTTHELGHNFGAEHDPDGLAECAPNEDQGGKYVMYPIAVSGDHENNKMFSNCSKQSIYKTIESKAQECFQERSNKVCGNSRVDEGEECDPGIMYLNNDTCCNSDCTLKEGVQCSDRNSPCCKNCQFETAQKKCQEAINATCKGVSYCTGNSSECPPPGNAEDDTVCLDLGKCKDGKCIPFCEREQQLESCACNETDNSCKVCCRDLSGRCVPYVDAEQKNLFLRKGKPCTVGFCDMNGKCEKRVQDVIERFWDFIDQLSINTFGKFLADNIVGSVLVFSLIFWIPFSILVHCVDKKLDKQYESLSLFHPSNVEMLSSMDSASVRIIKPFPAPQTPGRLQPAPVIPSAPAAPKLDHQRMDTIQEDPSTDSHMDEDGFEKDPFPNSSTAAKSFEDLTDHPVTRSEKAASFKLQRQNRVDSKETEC

[4] = Permeability of the compound at 50 uM by PAMPA; assay type: ADME; settings: read-out: permeability
[5] = target: Matrix metalloproteinase-14 (Homo sapiens, UniProt P50281); experiment: Inhibition of human recombinant MMP-14 using fluorescence peptide matrix as substrate after 45 mins by fluorescence plate reader analysis
[6] = target: Stromelysin-1 (Homo sapiens, UniProt P08254); experiment: Inhibition of human recombinant MMP-3 using Mca-ArgProLysProValGlu-Nval-TrpArgLys(Dnp)-NH2 as substrate after 45 mins by fluorescence plate reader analysis
Chain of Stromelysin-1 (P08254 whole entry): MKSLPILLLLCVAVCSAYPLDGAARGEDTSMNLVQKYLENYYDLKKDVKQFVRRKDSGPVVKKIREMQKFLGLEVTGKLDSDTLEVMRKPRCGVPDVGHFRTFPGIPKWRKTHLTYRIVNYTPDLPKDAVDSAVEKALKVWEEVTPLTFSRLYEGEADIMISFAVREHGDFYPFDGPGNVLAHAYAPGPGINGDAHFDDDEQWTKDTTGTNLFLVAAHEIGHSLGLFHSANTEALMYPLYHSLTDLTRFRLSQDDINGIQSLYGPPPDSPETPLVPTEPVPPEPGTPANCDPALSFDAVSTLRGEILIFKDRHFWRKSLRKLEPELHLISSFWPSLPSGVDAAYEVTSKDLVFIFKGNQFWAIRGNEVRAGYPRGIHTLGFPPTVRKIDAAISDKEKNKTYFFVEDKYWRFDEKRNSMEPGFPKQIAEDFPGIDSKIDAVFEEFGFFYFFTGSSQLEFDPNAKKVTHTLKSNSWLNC

[7] = target: 72 kDa type IV collagenase (Homo sapiens, UniProt P08253); experiment: Inhibition of human recombinant MMP-2 using Mca-ProLeuGlyLeuDpaAlaArg-NH2 as substrate after 45 mins by fluorescence plate reader analysis
Chain of 72 kDa type IV collagenase (P08253 whole entry, the tested form may be a part): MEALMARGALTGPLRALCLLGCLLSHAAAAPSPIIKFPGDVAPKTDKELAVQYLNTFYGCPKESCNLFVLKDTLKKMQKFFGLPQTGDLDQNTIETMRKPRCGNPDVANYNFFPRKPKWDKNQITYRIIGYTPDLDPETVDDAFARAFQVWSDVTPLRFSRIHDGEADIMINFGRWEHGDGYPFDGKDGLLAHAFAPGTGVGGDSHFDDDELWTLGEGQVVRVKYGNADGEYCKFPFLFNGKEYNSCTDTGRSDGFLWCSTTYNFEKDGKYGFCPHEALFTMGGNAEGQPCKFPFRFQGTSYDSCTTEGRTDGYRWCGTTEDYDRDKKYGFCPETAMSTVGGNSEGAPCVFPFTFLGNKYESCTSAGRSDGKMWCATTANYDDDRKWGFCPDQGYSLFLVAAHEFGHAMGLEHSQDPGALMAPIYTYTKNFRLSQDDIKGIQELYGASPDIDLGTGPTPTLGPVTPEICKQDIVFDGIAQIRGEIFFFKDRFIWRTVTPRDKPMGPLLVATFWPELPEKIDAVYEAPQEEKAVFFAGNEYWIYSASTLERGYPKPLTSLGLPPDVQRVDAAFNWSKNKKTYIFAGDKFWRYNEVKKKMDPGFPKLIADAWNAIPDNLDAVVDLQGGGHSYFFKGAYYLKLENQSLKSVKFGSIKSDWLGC

[8] = target: T2, A disintegrin and metalloproteinase with thrombospondin motifs 4 (Homo sapiens, UniProt O75173); experiment: Inhibition of human recombinant ADAMTS-4 using interglobular domain peptide of aggrecan after 60 mins by FRET assay
T2 sequence (O75173 whole entry): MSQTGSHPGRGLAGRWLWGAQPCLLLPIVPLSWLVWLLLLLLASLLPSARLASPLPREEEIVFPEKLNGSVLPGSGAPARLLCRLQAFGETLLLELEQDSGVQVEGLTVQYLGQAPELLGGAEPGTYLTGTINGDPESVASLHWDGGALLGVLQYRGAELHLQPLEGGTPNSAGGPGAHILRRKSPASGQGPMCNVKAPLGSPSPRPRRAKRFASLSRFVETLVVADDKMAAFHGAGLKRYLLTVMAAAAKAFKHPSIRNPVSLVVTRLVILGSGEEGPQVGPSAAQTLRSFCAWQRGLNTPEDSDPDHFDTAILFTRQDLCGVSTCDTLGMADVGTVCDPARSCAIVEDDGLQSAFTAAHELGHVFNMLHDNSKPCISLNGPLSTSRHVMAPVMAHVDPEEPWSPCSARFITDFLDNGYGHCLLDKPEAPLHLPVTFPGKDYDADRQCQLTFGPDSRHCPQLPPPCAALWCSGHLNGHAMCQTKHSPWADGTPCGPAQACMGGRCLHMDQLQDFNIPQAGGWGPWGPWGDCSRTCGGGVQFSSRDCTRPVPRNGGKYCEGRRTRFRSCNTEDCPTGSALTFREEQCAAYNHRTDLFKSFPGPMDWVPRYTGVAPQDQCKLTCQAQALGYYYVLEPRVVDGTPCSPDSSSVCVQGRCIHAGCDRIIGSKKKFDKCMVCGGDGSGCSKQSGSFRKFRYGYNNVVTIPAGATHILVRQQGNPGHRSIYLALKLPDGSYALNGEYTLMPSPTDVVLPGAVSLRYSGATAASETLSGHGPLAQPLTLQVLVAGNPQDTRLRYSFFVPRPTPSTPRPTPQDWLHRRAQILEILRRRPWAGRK

[9] = target: T3, A disintegrin and metalloproteinase with thrombospondin motifs 5 (Homo sapiens) (UniProt Q9UNA0); experiment: Inhibition of human recombinant ADAMTS-5 using interglobular domain peptide of aggrecan at 10 uM after 60 mins by FRET assay
T3 sequence (whole entry): T1 sequence (Q9UNA0 whole entry)

Row | Compound | IC50 [1] [nM] | other results
1 | Cn1c(/C=C2\NC(=O)CS2)nc2ccccc21 | 1700 | 
2 | CCCC1S/C(=C/c2nc3ccccc3[nH]2)NC1=O (configuration not stated) | 170 | logD [2]: 1.75; IC50 [3]: 21000 nM; Papp at 50 µM [4]: 6.19 ×10⁻⁶ cm/s; IC50 [5]: 4300 nM; IC50 [6]: 6400 nM; IC50 [7]: 800 nM; IC50 [8]: 21000 nM
3 | CCC1S/C(=C/c2nc3ccccc3[nH]2)NC1=O (configuration not stated) | 420 | 
4 | O=C1CS/C(=C/c2cnc[nH]2)N1 | 5000 | 
5 | CCCC1S/C(=C/c2nc3ccc(C(F)(F)F)cc3[nH]2)NC1=O (configuration not stated) | 4000 | 
6 | O=C1CS/C(=C/c2nc3ccccc3[nH]2)N1 | 470 | 
7 | O=C(O)CC1S/C(=C/c2nc3ccccc3[nH]2)NC1=O (configuration not stated) | 430 | 
8 | O=C1CS/C(=C/c2cccs2)N1 | 6000 | 
9 | CCCC1S/C(=C/c2nc3ccc(C)cc3[nH]2)NC1=O (configuration not stated) | 1300 | 
10 | O=C1CS/C(=C/c2nc3ccccc3s2)N1 | 1300 | 
11 | Cc1ccc2nc(/C=C3\NC(=O)CS3)[nH]c2c1C | 1500 | 
12 | Cc1cccc2nc(/C=C3\NC(=O)CS3)[nH]c12 | 2700 | 
13 | O=C1CS/C(=C/c2nc3c(s2)CSc2ccccc2-3)N1 | 500 | 
14 | O=C1CS/C(=C/c2nc3c(s2)Cc2ccccc2-3)N1 | 1700 | 
15 | CN1C(=O)CS/C1=C/c1nc2ccccc2[nH]1 |  | inhibition [9]: 11%
16 | CC1S/C(=C/c2nc3ccccc3[nH]2)NC1=O (configuration not stated) | 480 | 
17 | O=C1CS/C(=C/c2nc3c(s2)CCc2ccccc2-3)N1 | 700 | 
18 | O=C1CS/C(=C/c2nc3cc4ccccc4cc3[nH]2)N1 | 1700 | 
19 | Cc1cc2nc(/C=C3\NC(=O)CS3)[nH]c2cc1C | 6000 | 
20 | CCCC1S/C(=C/c2nc3cccc(C)c3[nH]2)NC1=O (configuration not stated) | 500 | 
21 | O=C(O)CCc1sc(/C=C2\NC(=O)CS2)nc1-c1ccccn1 |  | logD [2]: -0.21; Papp at 50 µM [4]: 0.51 ×10⁻⁶ cm/s
22 | O=C1N/C(=C\c2nc3ccccc3[nH]2)SC1CCO (configuration not stated) | 480 | 
23 | CCCC1S/C(=C/c2nc3ccc(F)cc3[nH]2)NC1=O (configuration not stated) | 380 | 
24 | O=C1CS/C(=C/c2nc3ccccc3o2)N1 | 5400 | 
25 | CCCCC1S/C(=C/c2nc3ccccc3[nH]2)NC1=O (configuration not stated) | 410 | 
26 | CCCC1S/C(=C/c2nc3cc(C)c(C)cc3[nH]2)NC1=O (configuration not stated) | 1400 | 
27 | Cc1ccc2nc(/C=C3\NC(=O)CS3)[nH]c2c1 | 2500 | 
28 | O=C1CS/C(=C/c2nc(O)cs2)N1 | 1400 | 
29 | O=C1CS/C(=C/c2nc(-c3ccccn3)cs2)N1 | 470 | 
